What all share (assay): cell-based
Assay [1] addresses T1, hNav1.5 (Homo sapiens, UniProt Q14524). Particulars: IonWorks Quattro; Table 6; read-out: IC50 (μM) Nav1.5. Background: In patch-clamp work, channel activity is measured electrically.
In the next assay the target is hNav1.6 (Homo sapiens, UniProt Q9UQD0). Type of assay: cell-based. Particulars: Table 15; for IC50: read-out: PX hNav1.6 Tonic IC50; for Nav1.6/Nav1.7: ratio of PX tonic IC50 values.
Assay [2] deals with T2, hNav1.4 (Homo sapiens, UniProt P35499). The assay is classed as cell-based. Particulars: Table 6; for IC50: IonWorks Quattro, read-out: IC50 (μM) Nav1.4; for Nav1.4/Nav1.7: ratio of IonWorks Quattro IC50 values.
T2 sequence (P35499 whole entry): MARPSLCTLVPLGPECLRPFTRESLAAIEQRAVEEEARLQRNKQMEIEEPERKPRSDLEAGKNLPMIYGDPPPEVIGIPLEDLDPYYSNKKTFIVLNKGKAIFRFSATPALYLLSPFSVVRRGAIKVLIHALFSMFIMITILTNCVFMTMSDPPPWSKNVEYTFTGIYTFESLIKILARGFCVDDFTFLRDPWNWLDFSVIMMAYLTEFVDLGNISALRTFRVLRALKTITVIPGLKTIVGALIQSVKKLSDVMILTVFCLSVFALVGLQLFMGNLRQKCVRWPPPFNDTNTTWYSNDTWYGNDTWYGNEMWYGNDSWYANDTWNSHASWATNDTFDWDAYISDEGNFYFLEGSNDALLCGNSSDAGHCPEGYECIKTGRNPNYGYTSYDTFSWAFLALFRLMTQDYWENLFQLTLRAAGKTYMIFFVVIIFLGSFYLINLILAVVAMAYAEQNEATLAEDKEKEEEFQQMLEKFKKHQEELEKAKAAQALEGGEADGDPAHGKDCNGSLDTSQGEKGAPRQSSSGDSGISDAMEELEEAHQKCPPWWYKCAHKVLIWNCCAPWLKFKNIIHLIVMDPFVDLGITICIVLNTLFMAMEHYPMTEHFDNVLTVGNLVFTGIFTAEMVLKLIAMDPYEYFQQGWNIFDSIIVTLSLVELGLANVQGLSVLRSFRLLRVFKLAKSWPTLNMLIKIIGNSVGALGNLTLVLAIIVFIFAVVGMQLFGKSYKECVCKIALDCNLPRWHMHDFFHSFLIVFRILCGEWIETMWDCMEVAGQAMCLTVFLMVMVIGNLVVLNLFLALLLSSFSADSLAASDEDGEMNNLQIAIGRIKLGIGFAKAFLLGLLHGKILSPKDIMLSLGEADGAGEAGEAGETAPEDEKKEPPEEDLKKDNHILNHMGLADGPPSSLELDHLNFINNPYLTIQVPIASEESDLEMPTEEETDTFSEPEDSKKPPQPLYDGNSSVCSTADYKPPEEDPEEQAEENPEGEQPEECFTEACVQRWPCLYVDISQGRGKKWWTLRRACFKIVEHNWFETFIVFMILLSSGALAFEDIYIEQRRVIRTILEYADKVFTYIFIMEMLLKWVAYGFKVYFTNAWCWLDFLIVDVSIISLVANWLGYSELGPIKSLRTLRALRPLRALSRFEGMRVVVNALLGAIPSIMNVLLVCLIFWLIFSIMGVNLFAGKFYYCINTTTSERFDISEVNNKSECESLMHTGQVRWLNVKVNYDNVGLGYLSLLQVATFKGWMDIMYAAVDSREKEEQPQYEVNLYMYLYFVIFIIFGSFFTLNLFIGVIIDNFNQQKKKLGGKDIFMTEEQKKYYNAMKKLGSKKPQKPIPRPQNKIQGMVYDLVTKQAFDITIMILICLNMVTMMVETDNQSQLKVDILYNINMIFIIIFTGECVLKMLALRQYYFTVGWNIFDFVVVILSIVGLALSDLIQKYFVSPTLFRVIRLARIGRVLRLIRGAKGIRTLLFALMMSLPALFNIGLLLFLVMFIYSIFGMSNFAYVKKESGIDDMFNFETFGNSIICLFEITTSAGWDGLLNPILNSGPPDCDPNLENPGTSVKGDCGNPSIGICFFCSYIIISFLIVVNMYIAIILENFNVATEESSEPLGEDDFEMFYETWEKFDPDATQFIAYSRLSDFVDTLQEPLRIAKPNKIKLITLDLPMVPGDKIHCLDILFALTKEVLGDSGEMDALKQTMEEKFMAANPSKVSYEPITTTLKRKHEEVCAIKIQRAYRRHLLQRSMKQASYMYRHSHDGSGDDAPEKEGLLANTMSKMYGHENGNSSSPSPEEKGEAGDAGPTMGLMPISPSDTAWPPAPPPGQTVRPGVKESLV
Another assay has as its target hNav1.3 (Homo sapiens, UniProt Q9NY46). Particulars: IonWorks Quattro; Table 6; read-out: IC50 (μM) Nav1.3.
The target of assay [3] is T3, hNav1.7 (Homo sapiens, UniProt Q15858). Particulars: read-out: IC50 (μM) Nav1.7.
T3 sequence (Q15858 whole entry): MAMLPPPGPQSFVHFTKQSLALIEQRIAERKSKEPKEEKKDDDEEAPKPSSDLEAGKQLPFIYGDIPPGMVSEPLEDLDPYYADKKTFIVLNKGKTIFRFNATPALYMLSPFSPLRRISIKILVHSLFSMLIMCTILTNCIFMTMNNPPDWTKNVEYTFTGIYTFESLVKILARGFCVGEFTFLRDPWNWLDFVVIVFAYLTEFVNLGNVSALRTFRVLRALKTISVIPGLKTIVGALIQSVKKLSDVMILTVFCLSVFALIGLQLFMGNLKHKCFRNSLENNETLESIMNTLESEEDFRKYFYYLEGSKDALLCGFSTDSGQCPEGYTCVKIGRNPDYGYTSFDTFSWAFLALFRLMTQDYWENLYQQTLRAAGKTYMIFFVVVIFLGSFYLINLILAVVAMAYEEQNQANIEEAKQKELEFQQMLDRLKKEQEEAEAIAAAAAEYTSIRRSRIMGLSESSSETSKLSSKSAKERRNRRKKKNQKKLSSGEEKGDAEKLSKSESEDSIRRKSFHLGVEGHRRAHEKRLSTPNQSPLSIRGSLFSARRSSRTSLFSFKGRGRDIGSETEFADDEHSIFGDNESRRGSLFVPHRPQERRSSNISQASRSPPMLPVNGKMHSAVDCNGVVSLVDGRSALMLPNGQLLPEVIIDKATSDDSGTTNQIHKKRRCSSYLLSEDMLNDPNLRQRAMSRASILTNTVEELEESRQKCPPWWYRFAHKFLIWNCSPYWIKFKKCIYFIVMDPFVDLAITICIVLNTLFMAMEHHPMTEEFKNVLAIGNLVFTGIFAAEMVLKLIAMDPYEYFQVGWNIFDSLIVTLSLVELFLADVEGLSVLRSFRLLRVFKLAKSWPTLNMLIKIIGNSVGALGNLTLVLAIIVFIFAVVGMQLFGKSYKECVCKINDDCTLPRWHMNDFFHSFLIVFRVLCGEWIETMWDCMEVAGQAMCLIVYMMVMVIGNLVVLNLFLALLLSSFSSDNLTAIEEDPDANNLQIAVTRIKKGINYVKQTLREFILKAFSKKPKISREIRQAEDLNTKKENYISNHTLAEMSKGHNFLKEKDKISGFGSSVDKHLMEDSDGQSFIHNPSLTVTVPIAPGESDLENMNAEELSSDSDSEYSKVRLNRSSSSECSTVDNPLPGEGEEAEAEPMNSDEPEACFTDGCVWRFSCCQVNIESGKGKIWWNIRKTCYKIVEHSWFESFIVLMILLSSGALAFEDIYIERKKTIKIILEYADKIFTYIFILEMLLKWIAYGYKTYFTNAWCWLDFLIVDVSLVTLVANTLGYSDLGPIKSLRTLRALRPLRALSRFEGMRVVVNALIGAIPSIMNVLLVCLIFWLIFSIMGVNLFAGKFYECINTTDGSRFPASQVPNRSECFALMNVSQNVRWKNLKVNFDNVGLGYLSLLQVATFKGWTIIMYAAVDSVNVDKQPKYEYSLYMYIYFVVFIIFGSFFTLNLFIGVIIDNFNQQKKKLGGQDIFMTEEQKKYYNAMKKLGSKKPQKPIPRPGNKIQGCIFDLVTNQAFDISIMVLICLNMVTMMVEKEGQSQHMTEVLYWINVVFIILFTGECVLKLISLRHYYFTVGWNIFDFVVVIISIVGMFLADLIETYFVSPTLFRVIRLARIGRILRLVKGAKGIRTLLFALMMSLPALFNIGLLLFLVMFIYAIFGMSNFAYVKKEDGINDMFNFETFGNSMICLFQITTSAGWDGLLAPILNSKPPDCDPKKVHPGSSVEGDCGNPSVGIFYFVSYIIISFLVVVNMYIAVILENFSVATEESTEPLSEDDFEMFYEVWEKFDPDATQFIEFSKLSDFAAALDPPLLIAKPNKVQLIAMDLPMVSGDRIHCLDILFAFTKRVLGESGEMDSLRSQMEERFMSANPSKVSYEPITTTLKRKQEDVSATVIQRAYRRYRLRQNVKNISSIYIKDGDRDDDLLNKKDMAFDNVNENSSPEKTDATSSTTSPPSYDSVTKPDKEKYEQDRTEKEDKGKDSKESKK
Assay [4] concerns the target T3, hNav1.7. The assay is classed as cell-based. Particulars: for IC50: Table 15, read-out: PX hNav1.7 Tonic IC50; for Nav1.4/Nav1.7 / Nav1.5/Nav1.7: ratio of PX tonic IC50 values, Table 11.
The target of assay [5] is T1, hNav1.5. Particulars: Table 12; ratio of PX tonic IC50 values.
Assay [6] has as its target T2, hNav1.4. The assay is classed as cell-based. As to conditions: Table 12; ratio of PX tonic IC50 values.

These results are taken from US10344060B2 (priority 2013, dated 2019).

Each structure is given as a SMILES string. Read-outs that look alike come from different tables or passages of the source.

With `CC[C@H](C)[C@H](NC(=O)[C@@H](NC(=O)[C@H](CCCCN)NC(=O)[C@H](CCCNC(=N)N)NC(=O)[C@@H]1CSSC[C@@H]2NC(=O)[C@H](C)NC(=O)[C@H](CCCNC(=N)N)NC(=O)[C@H](CCCCN)NC(=O)[C@H](CO)NC(=O)[C@H](CC(=O)O)NC(=O)[C@@H]3CSSC[C@H](NC(=O)[C@H](CCCNC(=N)N)NC(=O)[C@H](CC(C)C)NC(=O)CNC(=O)[C@H](CCC(=O)O)NC(=O)[C@H](CSSC[C@H](NC(=O)[C@@H](N)Cc4ccc(O)cc4)C(=O)N[C@@H](CCC(N)=O)C(=O)N[C@@H](CCCCN)C(=O)N[C@@H](Cc4c[nH]c5ccccc45)C(=O)N[C@@H](CCSC)C(=O)N[C@@H](CCC(=O)O)C(=O)N[C@@H]([C@@H](C)O)C(=O)N3)NC2=O)C(=O)N[C@@H](CCCCN)C(=O)N[C@@H](CC(C)C)C(=O)N[C@@H](Cc2c[nH]c3ccccc23)C(=O)N1)[C@@H](C)CC)C(N)=O` [compound 54], the IC50 at hNav1.5 [1] is > 5 µM; at hNav1.6 it was > 10000 nM; at hNav1.4 [2], 2.6 µM; on hNav1.3 it was 2.8 µM; at hNav1.7 [3], 0.56 µM. Besides, the Nav1.4/Nav1.7 at hNav1.4 [2] was 5.

Consider `CC[C@H](C)[C@H](NC(=O)[C@@H](NC(=O)[C@H](CCCCN)NC(=O)[C@H](CCCNC(=N)N)NC(=O)[C@@H]1CSSC[C@@H]2NC(=O)[C@H](C)NC(=O)[C@H](CCCNC(=N)N)NC(=O)[C@H](CCCCN)NC(=O)[C@H](CCC(=O)O)NC(=O)[C@H](CC(=O)O)NC(=O)[C@@H]3CSSC[C@H](NC(=O)[C@H](CCCNC(=N)N)NC(=O)[C@H](CC(C)C)NC(=O)CNC(=O)[C@H](CCC(=O)O)NC(=O)[C@H](CSSC[C@H](NC(=O)[C@@H](N)Cc4ccc(O)cc4)C(=O)N[C@@H](CCC(N)=O)C(=O)N[C@@H](CCCCN)C(=O)N[C@@H](Cc4c[nH]c5ccccc45)C(=O)N[C@@H](CCSC)C(=O)N[C@@H](Cc4c[nH]c5ccccc45)C(=O)N[C@@H]([C@@H](C)O)C(=O)N3)NC2=O)C(=O)N[C@@H](CCCCN)C(=O)N[C@@H](CC(C)C)C(=O)N[C@@H](Cc2c[nH]c3ccccc23)C(=O)N1)[C@@H](C)CC)C(N)=O` [compound 57], for which the IC50 on hNav1.5 [1] was > 5 µM; on hNav1.6, 200 nM; at hNav1.4 [2], 0.38 µM; at hNav1.3, 0.19 µM; at hNav1.7 [3] it was 0.039 µM. Besides, the Nav1.4/Nav1.7 at hNav1.4 [2] is reported as 10.

For `CC[C@H](C)[C@H](NC(=O)[C@@H](NC(=O)[C@H](CCCCN)NC(=O)[C@H](CCCNC(=N)N)NC(=O)[C@@H]1CSSC[C@@H]2NC(=O)[C@H](CCC(=O)O)NC(=O)[C@H](CCCNC(=N)N)NC(=O)[C@H](CCCCN)NC(=O)[C@H](CO)NC(=O)[C@H](CC(=O)O)NC(=O)[C@@H]3CSSC[C@H](NC(=O)[C@H](CCCNC(=N)N)NC(=O)[C@H](CC(C)C)NC(=O)CNC(=O)[C@H](CCC(=O)O)NC(=O)[C@H](CSSC[C@H](NC(=O)[C@@H](N)Cc4ccc(O)cc4)C(=O)N[C@@H](CCC(N)=O)C(=O)N[C@@H](CCCCN)C(=O)N[C@@H](Cc4c[nH]c5ccccc45)C(=O)N[C@@H](CCSC)C(=O)N[C@@H](Cc4c[nH]c5ccccc45)C(=O)N[C@@H]([C@@H](C)O)C(=O)N3)NC2=O)C(=O)N[C@@H](CCCCN)C(=O)N[C@@H](CC(C)C)C(=O)N[C@@H](Cc2c[nH]c3ccccc23)C(=O)N1)[C@@H](C)CC)C(N)=O` [compound 60], the IC50 is > 5 µM at hNav1.5 [1]; 146 nM on hNav1.6; 0.23 µM on hNav1.4 [2]; 0.11 µM on hNav1.3; 0.02 µM at hNav1.7 [3]. The Nav1.4/Nav1.7 on hNav1.4 [2] came out at 12.

`CC[C@H](C)[C@H](NC(=O)[C@@H](NC(=O)[C@H](CCCCN)NC(=O)[C@H](CCCNC(=N)N)NC(=O)[C@@H]1CSSC[C@@H]2NC(=O)[C@H](C)NC(=O)[C@H](CCCNC(=N)N)NC(=O)[C@H](CCCCN)NC(=O)[C@H](CO)NC(=O)[C@H](CC(=O)O)NC(=O)[C@@H]3CSSC[C@H](NC(=O)[C@H](CCCNC(=N)N)NC(=O)[C@H](CC(C)C)NC(=O)CNC(=O)[C@H](CCC(=O)O)NC(=O)[C@H](CSSC[C@H](NC(=O)[C@@H](N)Cc4ccc(O)cc4)C(=O)N[C@@H](CCC(N)=O)C(=O)N[C@@H](CCCCN)C(=O)N[C@@H](Cc4c[nH]c5ccccc45)C(=O)N[C@@H](CCSC)C(=O)N[C@@H](Cc4c[nH]c5ccccc45)C(=O)N[C@@H]([C@@H](C)O)C(=O)N3)NC2=O)C(=O)N[C@@H](CCCCN)C(=O)N[C@@H](CCC(=O)O)C(=O)N[C@@H](Cc2c[nH]c3ccccc23)C(=O)N1)[C@@H](C)CC)C(N)=O` [compound 65]: the IC50 at hNav1.5 [1] is > 5 µM; on hNav1.6 it was 9550 nM; on hNav1.4 [2], > 5 µM; at hNav1.3 it was 2 µM; at hNav1.7 [3], 4 µM. The Nav1.4/Nav1.7 on hNav1.4 [2] came to 1.

Regarding `CC[C@H](C)[C@H](NC(=O)[C@H](CCC(=O)O)NC(=O)[C@H](CCCCN)NC(=O)[C@H](CCCNC(=N)N)NC(=O)[C@@H]1CSSC[C@@H]2NC(=O)[C@H](C)NC(=O)[C@H](CCCNC(=N)N)NC(=O)[C@H](CCCCN)NC(=O)[C@H](CO)NC(=O)[C@H](CC(=O)O)NC(=O)[C@@H]3CSSC[C@H](NC(=O)[C@H](CCCNC(=N)N)NC(=O)[C@H](CC(C)C)NC(=O)CNC(=O)[C@H](CCC(=O)O)NC(=O)[C@H](CSSC[C@H](NC(=O)[C@@H](N)Cc4ccc(O)cc4)C(=O)N[C@@H](CCC(N)=O)C(=O)N[C@@H](CCCCN)C(=O)N[C@@H](Cc4c[nH]c5ccccc45)C(=O)N[C@@H](CCSC)C(=O)N[C@@H](Cc4c[nH]c5ccccc45)C(=O)N[C@@H]([C@@H](C)O)C(=O)N3)NC2=O)C(=O)N[C@@H](CCCCN)C(=O)N[C@@H](CC(C)C)C(=O)N[C@@H](Cc2c[nH]c3ccccc23)C(=O)N1)C(N)=O` [compound 69], the IC50 on hNav1.5 [1] was > 5 µM; at hNav1.6, 248 nM; on hNav1.7 [4] it was 0.568 nM; on hNav1.4 [2], 0.83 µM; on hNav1.3, 0.33 µM; on hNav1.7 [3] it was 0.028 µM. Moreover, at hNav1.6, the Nav1.6/Nav1.7 stood at 437. The results for the Nav1.4/Nav1.7 on hNav1.7 [4] and at hNav1.4 [2] were 300 and 30, respectively. Moreover, at hNav1.7 [4], the Nav1.5/Nav1.7 was 8800.

With `CC[C@H](C)[C@H](NC(=O)[C@H](CCCCN)NC(=O)[C@H](CCCNC(=N)N)NC(=O)[C@@H]1CSSC[C@@H]2NC(=O)[C@H](C)NC(=O)[C@H](CCCNC(=N)N)NC(=O)[C@H](CCCCN)NC(=O)[C@H](CO)NC(=O)[C@H](CC(=O)O)NC(=O)[C@@H]3CSSC[C@H](NC(=O)[C@H](CCCNC(=N)N)NC(=O)[C@H](CC(C)C)NC(=O)CNC(=O)[C@H](CCC(=O)O)NC(=O)[C@H](CSSC[C@H](NC(=O)[C@@H](N)Cc4ccc(O)cc4)C(=O)N[C@@H](CCC(N)=O)C(=O)N[C@@H](CCCCN)C(=O)N[C@@H](Cc4c[nH]c5ccccc45)C(=O)N[C@@H](CCSC)C(=O)N[C@@H](Cc4c[nH]c5ccccc45)C(=O)N[C@@H]([C@@H](C)O)C(=O)N3)NC2=O)C(=O)N[C@@H](CCCCN)C(=O)N[C@@H](CC(C)C)C(=O)N[C@@H](Cc2c[nH]c3ccccc23)C(=O)N1)C(=O)N[C@@H](CCC(=O)O)C(N)=O` [compound 70], the IC50 is > 5 µM at hNav1.5 [1]; > 10000 nM at hNav1.6; 261 nM at hNav1.7 [4]; > 5 µM at hNav1.4 [2]; 5 µM on hNav1.3; 0.28 µM at hNav1.7 [3]. For the same compound, the Nav1.6/Nav1.7 at hNav1.6 is recorded as >38. Further, the Nav1.4/Nav1.7 worked out at 43 at hNav1.7 [4] and 18 at hNav1.4 [2]. Moreover, the Nav1.5/Nav1.7 at hNav1.7 [4] is given as >38.

As for `C#CC[C@H](N)C(=O)NCCOCCOCCOCCOCCOCCOCCOCCOCCOCCOCCOCCOCCC(=O)NCCCC[C@@H]1NC(=O)[C@H](CCCNC(=N)N)NC(=O)[C@H](CCCCN)NC(=O)[C@H](CO)NC(=O)[C@H](CC(=O)O)NC(=O)[C@@H]2CSSC[C@@H]3NC(=O)[C@H](CCC(=O)O)NC(=O)[C@H](CC(C)C)NC(=O)CNC(=O)[C@H](CCC(=O)O)NC(=O)[C@H](CSSC[C@H](NC(=O)[C@@H](N)Cc4ccc(O)cc4)C(=O)N[C@@H](CCC(N)=O)C(=O)N[C@@H](CCCCN)C(=O)N[C@@H](Cc4c[nH]c5ccccc45)C(=O)N[C@@H](CCCC)C(=O)N[C@@H](Cc4c[nH]c5ccccc45)C(=O)N[C@@H]([C@@H](C)O)C(=O)N2)NC(=O)[C@H](CSSC[C@@H](C(=O)N[C@@H](CCCNC(=N)N)C(=O)N[C@@H](CCCCN)C(=O)N[C@H](C(=O)N[C@@H](Cc2c[nH]c4ccccc24)C(N)=O)[C@@H](C)CC)NC(=O)[C@H](Cc2c[nH]c4ccccc24)NC(=O)[C@H](CC(C)C)NC(=O)[C@H](CCCCN)NC3=O)NC1=O` [compound 290], the Nav1.5/Nav1.7 on hNav1.5 [5] was found to be 12. Also, the Nav1.4/Nav1.7 at hNav1.4 [6] came out at 5.

Regarding `C#CC[C@H](N)C(=O)NCCOCCOCCOCCOCCC(=O)NCCCC[C@@H]1NC(=O)[C@H](CCCNC(=N)N)NC(=O)[C@H](CCCCN)NC(=O)[C@H](CO)NC(=O)[C@H](CC(=O)O)NC(=O)[C@@H]2CSSC[C@@H]3NC(=O)[C@H](CCC(=O)O)NC(=O)[C@H](CC(C)C)NC(=O)CNC(=O)[C@H](CCC(=O)O)NC(=O)[C@H](CSSC[C@H](NC(=O)[C@@H](N)Cc4ccc(O)cc4)C(=O)N[C@@H](CCC(N)=O)C(=O)N[C@@H](CCCCN)C(=O)N[C@@H](Cc4c[nH]c5ccccc45)C(=O)N[C@@H](CCCC)C(=O)N[C@@H](Cc4c[nH]c5ccccc45)C(=O)N[C@@H]([C@@H](C)O)C(=O)N2)NC(=O)[C@H](CSSC[C@@H](C(=O)N[C@@H](CCCNC(=N)N)C(=O)N[C@@H](CCCCN)C(=O)N[C@H](C(=O)N[C@@H](Cc2c[nH]c4ccccc24)C(N)=O)[C@@H](C)CC)NC(=O)[C@H](Cc2c[nH]c4ccccc24)NC(=O)[C@H](CC(C)C)NC(=O)[C@H](CCCCN)NC3=O)NC1=O` [compound 291], the Nav1.5/Nav1.7 at hNav1.5 [5] worked out at 100. Also, the Nav1.4/Nav1.7 on hNav1.4 [6] was 38.

Broadly, the IC50 is the midpoint of a concentration-inhibition curve.
